Molecular target: Btk enzyme (His-Btk) (Homo sapiens (Human), UniProt Q06187)
Assay: Btk enzyme activity, IMAP fluorescence polarization assay
Conditions: 60 min pre-incubation, 5 μM ATP, bin bound in nM

Sequence of Btk enzyme (His-Btk) (Q06187 whole entry): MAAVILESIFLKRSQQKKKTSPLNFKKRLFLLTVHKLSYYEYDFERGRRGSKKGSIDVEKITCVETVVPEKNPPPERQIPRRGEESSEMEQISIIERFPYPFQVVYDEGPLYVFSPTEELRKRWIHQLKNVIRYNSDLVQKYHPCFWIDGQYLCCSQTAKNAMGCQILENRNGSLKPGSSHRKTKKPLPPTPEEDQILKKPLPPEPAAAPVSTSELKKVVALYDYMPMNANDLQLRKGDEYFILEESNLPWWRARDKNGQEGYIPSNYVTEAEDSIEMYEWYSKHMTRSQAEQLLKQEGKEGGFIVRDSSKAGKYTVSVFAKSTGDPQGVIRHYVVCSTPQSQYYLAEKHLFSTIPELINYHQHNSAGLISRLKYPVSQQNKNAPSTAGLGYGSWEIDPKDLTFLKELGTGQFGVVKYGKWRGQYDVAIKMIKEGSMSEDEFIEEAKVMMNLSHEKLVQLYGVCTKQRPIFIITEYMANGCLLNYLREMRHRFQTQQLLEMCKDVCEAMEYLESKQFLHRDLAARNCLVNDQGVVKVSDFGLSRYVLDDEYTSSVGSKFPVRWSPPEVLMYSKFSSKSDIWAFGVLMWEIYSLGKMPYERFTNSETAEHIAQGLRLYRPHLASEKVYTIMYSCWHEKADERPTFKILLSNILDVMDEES

EC50 Btk activity values | Compound
<100 nM | Nc1nccn2c([C@@H]3CCCN3C(=O)/C=C/CN3CCCC3)nc(-c3ccc(C(=O)Nc4ccccn4)cc3)c12 [Example 2, (S,E)-4-(8-amino-3-(1-(4-(pyrrolidin-1-yl)but-2-enoyl)pyrrolidin-2-yl)imidazo[1,5-a]pyrazin-1-yl)-N-(pyridin-2-yl)benzamide]
<100 nM | COC/C=C/C(=O)N1CCC[C@H]1c1nc(-c2ccc(C(=O)Nc3ccccn3)cc2)c2c(N)nccn12 [Example 4, (S,E)-4-(8-amino-3-(1-(4-methoxybut-2-enoyl)pyrrolidin-2-yl)imidazo[1,5-a]pyrazin-1-yl)-N-(pyridin-2-yl)benzamide]
<100 nM | Nc1nccn2c([C@@H]3CCCN3C(=O)c3ccnc(Cl)n3)nc(-c3ccc(C(=O)Nc4ccccn4)cc3)c12 [Example 5, (S)-4-(8-amino-3-(1-(2-chloropyrimidine-4-carbonyl)pyrrolidin-2-yl)imidazo[1,5-a]pyrazin-1-yl)-N-(pyridin-2-yl)benzamide]
<100 nM | CN(C)C/C=C/C(=O)N1CCC[C@H]1c1nc(-c2ccc(C(=O)Nc3cc(F)ccn3)cc2)c2c(N)nccn12 [Example 7, (S,E)-4-(8-Amino-3-(1-(4-(dimethylamino)but-2-enoyl)pyrrolidin-2-yl)imidazo[1,5-a]pyrazin-1-yl)-N-(4-fluoropyridin-2-yl)benzamide]
<100 nM | CCc1ccnc(NC(=O)c2ccc(-c3nc([C@@H]4CCCN4C(=O)/C=C/COC)n4ccnc(N)c34)cc2)c1 [Example 11, (S,E)-4-(8-Amino-3-(1-(4-methoxybut-2-enoyl)pyrrolidin-2-yl)imidazo[1,5-a]pyrazin-1-yl)-N-(4-ethylpyridin-2-yl)benzamide]
<100 nM | CC#CC(=O)N1CCCC[C@H]1c1nc(-c2ccc(C(=O)Nc3ccon3)cc2)c2c(N)nccn12 [Example 24, (S)-4-(8-Amino-3-(1-but-2-ynoylpiperidin-2-yl)imidazo[1,5-a]pyrazin-1-yl)-N-(isoxazol-3-yl)benzamide]
<100 nM | CN(C)CC#CC(=O)N1CCC[C@H]1c1nc(-c2ccc(C(=O)Nc3ccccn3)cc2)c2c(N)nccn12 [Example 40, (S)-4-(8-Amino-3-(1-(4-(dimethylamino)but-2-ynoyl)pyrrolidin-2-yl)imidazo[1,5-a]pyrazin-1-yl)-N-(pyridin-2-yl)benzamide]
<100 nM | COCC#CC(=O)N1CCC[C@H]1c1nc(-c2ccc(C(=O)Nc3ccccn3)cc2)c2c(N)nccn12 [Example 41, (S)-4-(8-Amino-3-(1-(4-methoxybut-2-ynoyl)pyrrolidin-2-yl)imidazo[1,5-a]pyrazin-1-yl)-N-(pyridin-2-yl)benzamide]
<100 nM | CC#CC(=O)N1CCC[C@H]1c1nc(-c2ccc(C(=O)Nc3ccccn3)c(F)c2)c2c(N)nccn12 [Example 50, (S)-4-(8-amino-3-(1-but-2-ynoylpyrrolidin-2-yl)imidazo[1,5-a]pyrazin-1-yl)-2-fluoro-N-(pyridin-2-yl)benzamide]
<100 nM | COC/C=C/C(=O)N1CCC[C@H]1c1nc(-c2ccc(C(=O)Nc3cc(OC)ccn3)cc2)c2c(N)nccn12 [Example 51, (S,E)-4-(8-amino-3-(1-(4-methoxybut-2-enoyl)pyrrolidin-2-yl)imidazo[1,5-a]pyrazin-1-yl)-N-(4-methoxypyridin-2-yl)benzamide]
<100 nM | Cc1cc(C(=O)Nc2ccccn2)ccc1-c1nc([C@@H]2CCCCN2C(=O)c2ccnc(Cl)n2)n2ccnc(N)c12 [Example 56, 4-(8-amino-3-((S)-1-(2-chloropyrimidine-4-carbonyl)piperidin-2-yl)imidazo[1,5-a]pyrazin-1-yl)-3-methyl-N-(pyridin-2-yl)benzamide]
<100 nM | COC/C=C/C(=O)N1CCC[C@H]1c1nc(-c2ccc(C(=O)Nc3cc(C)ccn3)cc2)c2c(N)nccn12 [Example 57, (S,E)-4-(8-amino-3-(1-(4-methoxybut-2-enoyl)pyrrolidin-2-yl)imidazo[1,5-a]pyrazin-1-yl)-N-(4-methylpyridin-2-yl)benzamide]
<100 nM | COC/C=C/C(=O)N1CCC[C@H]1c1nc(-c2ccc(C(=O)Nc3cc(C(C)C)ccn3)cc2)c2c(N)nccn12 [Example 58, (S,E)-4-(8-amino-3-(1-(4-methoxybut-2-enoyl)pyrrolidin-2-yl)imidazo[1,5-a]pyrazin-1-yl)-N-(4-isopropylpyridin-2-yl)benzamide]
<100 nM | Cc1ccnc(NC(=O)c2ccc(-c3nc([C@@H]4CCCN4C(=O)/C=C/CN(C)C)n4ccnc(N)c34)cc2)c1 [Example 59, (S,E)-4-(8-amino-3-(1-(4-(dimethylamino)but-2-enoyl)pyrrolidin-2-yl)imidazo[1,5-a]pyrazin-1-yl)-N-(4-methylpyridin-2-yl)benzamide]
<100 nM | CN(C)C/C=C/C(=O)NCc1nc(-c2ccc(C(=O)Nc3ccccn3)cc2)c2c(N)nccn12 [Example 69, (E)-4-(8-amino-3-((4-(dimethylamino)but-2-enamido)methyl)imidazo[1,5-a]pyrazin-1-yl)-N-(pyridin-2-yl)benzamide]
<100 nM | CC(C)c1ccnc(NC(=O)c2ccc(-c3nc([C@@H]4CCCN4C(=O)c4ccnc(Cl)n4)n4ccnc(N)c34)cc2)c1 [Example 70, (S)-4-(8-amino-3-(1-(2-chloropyrimidine-4-carbonyl)pyrrolidin-2-yl)imidazo[1,5-a]pyrazin-1-yl)-N-(4-isopropylpyridin-2-yl)benzamide]
<100 nM | Nc1nccn2c([C@@H]3CCCN3C(=O)c3ccnc(Cl)n3)nc(-c3ccc(C(=O)Nc4nc5c(s4)CCCC5)cc3)c12 [Example 71, (S)-4-(8-amino-3-(1-(2-chloropyrimidine-4-carbonyl)pyrrolidin-2-yl)imidazo[1,5-a]pyrazin-1-yl)-N-(4,5,6,7-tetrahydrobenzo[d]thiazol-2-yl)benzamide]
<100 nM | CN(C)C/C=C/C(=O)N1CCCC[C@H]1c1nc(-c2ccc(C(=O)Nc3cccnn3)cc2)c2c(N)nccn12 [Example 73, (S,E)-4-(8-amino-3-(1-(4-(dimethylamino)but-2-enoyl)piperidin-2-yl)imidazo[1,5-a]pyrazin-1-yl)-N-(pyridazin-3-yl)benzamide]
<100 nM | Nc1nccn2c([C@@H]3CCCCN3C(=O)c3ccnc(Cl)n3)nc(-c3ccc(C(=O)Nc4cc(F)ccn4)cc3)c12 [Example 80, (S)-4-(8-amino-3-(1-(2-chloropyrimidine-4-carbonyl)piperidin-2-yl)imidazo[1,5-a]pyrazin-1-yl)-N-(4-fluoropyridin-2-yl)benzamide]
<100 nM | COC/C=C/C(=O)N1CCCC[C@H]1c1nc(-c2ccc(C(=O)Nc3cc(F)ccn3)cc2)c2c(N)nccn12 [Example 81, (S,E)-4-(8-amino-3-(1-(4-methoxybut-2-enoyl)piperidin-2-yl)imidazo[1,5-a]pyrazin-1-yl)-N-(4-fluoropyridin-2-yl)benzamide]
<100 nM | COC/C=C/C(=O)N1CCC[C@H]1c1nc(-c2ccc(C(=O)Nc3nc4c(s3)CCCC4)cc2)c2c(N)nccn12 [Example 82, (S,E)-4-(8-amino-3-(1-(4-methoxybut-2-enoyl)pyrrolidin-2-yl)imidazo[1,5-a]pyrazin-1-yl)-N-(4,5,6,7-tetrahydrobenzo[d]thiazol-2-yl)benzamide]
<100 nM | COc1cc(-c2nc([C@@H]3CCCN3C(=O)c3ccnc(Cl)n3)n3ccnc(N)c23)ccc1C(=O)Nc1ccccn1 [Example 83, (S)-4-(8-amino-3-(1-(2-chloropyrimidine-4-carbonyl)pyrrolidin-2-yl)imidazo[1,5-a]pyrazin-1-yl)-2-methoxy-N-(pyridin-2-yl)benzamide]

Same assay, conditions: 60 min pre-incubation, 5 μM ATP, bin bound in μM

EC50 Btk activity values | Compound
<1000 nM | COC/C=C/C(=O)N1CCC[C@H]1c1nc(-c2ccc(C(=O)Nc3ccccn3)c(F)c2)c2c(N)nccn12 [Example 52]
<1000 nM | COC/C=C/C(=O)N1CCC[C@H]1c1nc(-c2ccc(C(=O)Nc3cc(F)ccn3)cc2)c2c(N)nccn12 [Example 53, (S,E)-4-(8-amino-3-(1-(4-methoxybut-2-enoyl)pyrrolidin-2-yl)imidazo[1,5-a]pyrazin-1-yl)-N-(4-fluoropyridin-2-yl)benzamide]
<1000 nM | COC/C=C/C(=O)N1CCCC[C@H]1c1nc(-c2ccc(C(=O)Nc3ccon3)cc2)c2c(N)nccn12 [Example 54, (S,E)-4-(8-amino-3-(1-(4-methoxybut-2-enoyl)piperidin-2-yl)imidazo[1,5-a]pyrazin-1-yl)-N-(isoxazol-3-yl)benzamide]
<1000 nM | COC/C=C/C(=O)N1CCCC[C@H]1c1nc(-c2ccc(C(=O)Nc3ncccn3)cc2)c2c(N)nccn12 [Example 55, (S,E)-4-(8-amino-3-(1-(4-methoxybut-2-enoyl)piperidin-2-yl)imidazo[1,5-a]pyrazin-1-yl)-N-(pyrimidin-2-yl)benzamide]
<1000 nM | C=CC(=O)N1CCCC[C@H]1c1nc(-c2ccc(C(=O)Nc3ccccn3)cc2C)c2c(N)nccn12 [Example 68, 4-(3-((S)-1-acryloylpiperidin-2-yl)-8-aminoimidazo[1,5-a]pyrazin-1-yl)-3-methyl-N-(pyridin-2-yl)benzamide]
<1000 nM | COC/C=C/C(=O)N1CCCC[C@H]1c1nc(-c2ccc(C(=O)Nc3cccnn3)cc2)c2c(N)nccn12 [Example 72, (S,E)-4-(8-amino-3-(1-(4-methoxybut-2-enoyl)piperidin-2-yl)imidazo[1,5-a]pyrazin-1-yl)-N-(pyridazin-3-yl)benzamide]
<1000 nM | Nc1nccn2c([C@@H]3CCCCN3C(=O)c3ccnc(Cl)n3)nc(-c3ccc(C(=O)Nc4cccnn4)cc3)c12 [Example 74, (S)-4-(8-amino-3-(1-(2-chloropyrimidine-4-carbonyl)piperidin-2-yl)imidazo[1,5-a]pyrazin-1-yl)-N-(pyridazin-3-yl)benzamide]
